# Measurements published in patent publication US11083725B2 (priority 2014, dated 2021).
# System: NHBE cells
# Test: Biolog metabolic array: substrate use by NHBE cells with or without CA09 infection
# Assay type: cell-based, human
# Details: for Substrate use, 590 nm absorbance normalized to zero hour, 0 hr: Biolog PMM2, 0 hr; for Substrate use, 590 nm absorbance normalized to zero hour, 1 hr: Biolog PMM2, 1 hr; for Substrate use, 590 nm absorbance normalized to zero hour, 5 hr: Biolog PMM2, 5 hr; for Substrate use, 590 nm absorbance normalized to zero hour, 7 hr: Biolog PMM2, 7 hr
# [1] = Control (uninfected) NHBE cells
# [2] = Virus (CA09-infected NHBE cells, MOI 1)
# [3] = Virus: CA09-infected NHBE cells, MOI 1, Biolog PMM2
SMILES,"590 nm absorbance normalized to zero hour (substrate use), 0 hr [1]","590 nm absorbance normalized to zero hour (substrate use), 1 hr [1]","590 nm absorbance normalized to zero hour (substrate use), 2 hr [1]","590 nm absorbance normalized to zero hour (substrate use), 3 hr [1]","590 nm absorbance normalized to zero hour (substrate use), 4 hr [1]","590 nm absorbance normalized to zero hour (substrate use), 6 hr [1]","590 nm absorbance normalized to zero hour (substrate use), 8 hr [1]","590 nm absorbance normalized to zero hour (substrate use), 9 hr [1]","590 nm absorbance normalized to zero hour (substrate use), 10 hr [1]","590 nm absorbance normalized to zero hour (substrate use), 11 hr [1]","Substrate use, 590 nm absorbance normalized to zero hour, 0 hr [1]","Substrate use, 590 nm absorbance normalized to zero hour, 1 hr [1]","Substrate use, 590 nm absorbance normalized to zero hour, 5 hr [1]","Substrate use, 590 nm absorbance normalized to zero hour, 7 hr [1]","590 nm absorbance normalized to zero hour (substrate use), 0 hr [2]","590 nm absorbance normalized to zero hour (substrate use), 1 hr [2]","590 nm absorbance normalized to zero hour (substrate use), 2 hr [2]","590 nm absorbance normalized to zero hour (substrate use), 3 hr [2]","590 nm absorbance normalized to zero hour (substrate use), 4 hr [2]","590 nm absorbance normalized to zero hour (substrate use), 5 hr [2]",also measured
O[C@H]1[C@H](O)[C@@H](O)[C@H](O)[C@@H](O)[C@H]1O [m-Inositol],1.00,1.63,2.13,3.87,3.78,3.01,3.42,3.81,3.89,3.64,1.00,1.63,3.07,3.55,1.00,0.51,0.66,0.77,0.81,0.94,"Substrate use, 590 nm absorbance normalized to zero hour, 11 hr (Control (uninfected) NHBE cells, Biolog PMM2, 11 hr): 4.22; 590 nm absorbance normalized to zero hour (substrate use), 6 hr [2]: 0.99; 590 nm absorbance normalized to zero hour (substrate use), 7 hr [2]: 1.04; 590 nm absorbance normalized to zero hour (substrate use), 8 hr [2]: 1.10; 590 nm absorbance normalized to zero hour (substrate use), 9 hr [2]: 1.20; 590 nm absorbance normalized to zero hour (substrate use), 10 hr [2]: 1.24; 590 nm absorbance normalized to zero hour (substrate use), 11 hr [2]: 1.34; 590 nm absorbance normalized to zero hour (substrate use), 0 hr [3]: 1.00; 590 nm absorbance normalized to zero hour (substrate use), 1 hr [3]: 0.51; 590 nm absorbance normalized to zero hour (substrate use), 2 hr [3]: 0.66; 590 nm absorbance normalized to zero hour (substrate use), 3 hr [3]: 0.77; 590 nm absorbance normalized to zero hour (substrate use), 4 hr [3]: 0.81; 590 nm absorbance normalized to zero hour (substrate use), 5 hr [3]: 0.94; 590 nm absorbance normalized to zero hour (substrate use), 6 hr [3]: 0.99; 590 nm absorbance normalized to zero hour (substrate use), 7 hr [3]: 1.04; 590 nm absorbance normalized to zero hour (substrate use), 8 hr [3]: 1.10; 590 nm absorbance normalized to zero hour (substrate use), 9 hr [3]: 1.20; 590 nm absorbance normalized to zero hour (substrate use), 10 hr [3]: 1.24; 590 nm absorbance normalized to zero hour (substrate use), 11 hr [3]: 1.34"
O=C(O)C(O)C(O)C(=O)O (centres unmarked) [m-Tartaric Acid],1.00,1.39,1.72,2.14,2.16,3.24,2.82,2.95,2.65,2.75,1.00,1.39,2.42,2.70,1.00,1.50,1.66,1.90,1.96,2.05,"590 nm absorbance normalized to zero hour (substrate use), 6 hr [2]: 2.17; 590 nm absorbance normalized to zero hour (substrate use), 7 hr [2]: 2.23; 590 nm absorbance normalized to zero hour (substrate use), 8 hr [2]: 2.28; 590 nm absorbance normalized to zero hour (substrate use), 9 hr [2]: 2.43; 590 nm absorbance normalized to zero hour (substrate use), 10 hr [2]: 2.40; 590 nm absorbance normalized to zero hour (substrate use), 11 hr [2]: 2.41; 590 nm absorbance normalized to zero hour (substrate use), 0 hr [3]: 1.00; 590 nm absorbance normalized to zero hour (substrate use), 1 hr [3]: 1.50; 590 nm absorbance normalized to zero hour (substrate use), 2 hr [3]: 1.66; 590 nm absorbance normalized to zero hour (substrate use), 3 hr [3]: 1.90; 590 nm absorbance normalized to zero hour (substrate use), 4 hr [3]: 1.96; 590 nm absorbance normalized to zero hour (substrate use), 5 hr [3]: 2.05; 590 nm absorbance normalized to zero hour (substrate use), 6 hr [3]: 2.17; 590 nm absorbance normalized to zero hour (substrate use), 7 hr [3]: 2.23; 590 nm absorbance normalized to zero hour (substrate use), 8 hr [3]: 2.28; 590 nm absorbance normalized to zero hour (substrate use), 9 hr [3]: 2.43; 590 nm absorbance normalized to zero hour (substrate use), 10 hr [3]: 2.40; 590 nm absorbance normalized to zero hour (substrate use), 11 hr [3]: 2.41"
